Reference: patent US20230085307A1, “PYRIDAZINONE COMPOUND AND HERBICIDE” (NISSAN CHEMICAL CORPORATION, priority 2019, published 2023)

Columns and labels:
[1] = tested on: lambsquarters; assay: Test Example 5: herbicidal effect by foliage application, plastic box (Table 20, symbol O); type: in vivo, lambsquarters (Chenopodium album); details: foliage application, 320 g/ha, evaluated three weeks after application
Procedure, shortened: (§1)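 Post-emergence foliar test in sterilized diluvial soil. Compound applied as water-diluted emulsion at a predetermined rate to 14-day-old plants; evaluation at three weeks.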

[2] = tested on: southern crabgrass; assay: Test Example 5: herbicidal effect by foliage application, plastic box (Table 20, symbol F); type: in vivo, southern crabgrass (Digitaria ciliaris); details: foliage application, 320 g/ha, evaluated three weeks after application
Procedure, shortened: as §1

[3] = tested on: wild oat; assay: Test Example 4: herbicidal effect by soil treatment (Table 19, symbol I); type: in vivo, wild oat (Avena fatua); details: amount of applied herbicide 320 g/ha
Procedure, shortened: (§2)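 Emulsion of test compound, water-diluted to predetermined amount, sprayed on soil after sowing (seed depth ~1.5 cm, sterilized diluvial soil). Greenhouse, 25–30° C. Effect graded at three weeks post-spray.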

[4] = tested on: velvetleaf; assay: Test Example 4: herbicidal effect by soil treatment (Table 19, symbol M); type: in vivo, velvetleaf (Abutilon theophrasti); details: amount of applied herbicide 320 g/ha
Procedure, shortened: as §2

[5] = tested on: chickweed; assay: Test Example 5: herbicidal effect by foliage application, plastic box (Table 20, symbol P); type: in vivo, common chickweed (Stellaria media); details: foliage application, 320 g/ha, evaluated three weeks after application
Procedure, shortened: as §1

[6] = tested on: oval-leafed pondweed; assay: Test Example 2: herbicidal activity, application during weed generation under submerged conditions (Table 17, symbol C); type: in vivo, oval-leafed pondweed (Monochoria vaginalis); details: AAH 320 g/ha; application during weed generation, submerged conditions
Procedure, shortened: (§3)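 Wagner pot, alluvial soil, 4 cm flood; mixed sowing of all species; greenhouse 25° C.–30° C. Emulsifiable formulation, water-diluted to predetermined dose, applied to paddy water at 1–2 leaf stage. Effect rated at 3 wk using the earlier test's scoring criteria.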

[7] = tested on: Italian ryegrass; assay: Test Example 4: herbicidal effect by soil treatment (Table 19, symbol K); type: in vivo, Italian ryegrass (Lolium multiflorum); details: amount of applied herbicide 320 g/ha
Procedure, shortened: as §2

[8] = tested on: rice flat sedge; assay: Test Example 3: herbicidal effect by foliage application, Wagner pot (Table 18, symbol E); type: in vivo, rice flat sedge (Cyperus iria); details: amount of applied herbicide 320 g/ha
Procedure, shortened: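 Plants were sown in alluvial soil held under 0.1–0.5 cm standing water and grown 14 days in a greenhouse at 25–30 °C. An emulsifiable formulation, water-diluted to the set dose, was then sprayed onto the foliage, and effects were scored three weeks later using previously defined criteria.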

[9] = tested on: Japanese bulrush; assay: Test Example 2: herbicidal activity, application during weed generation under submerged conditions (Table 17, symbol B); type: in vivo, Japanese bulrush (Schoenoplectus juncoides); details: AAH 320 g/ha; application during weed generation, submerged conditions
Procedure, shortened: as §3

[10] = tested on: windgrass; assay: Test Example 5: herbicidal effect by foliage application, plastic box (Table 20, symbol L); type: in vivo, windgrass (Apera spica-venti); details: foliage application, 320 g/ha, evaluated three weeks after application
Procedure, shortened: as §1

[11] = tested on: Japanese bulrush; assay: Test Example 1: herbicidal activity, application before weed generation under submerged conditions (Table 16, symbol B); type: in vivo, Japanese bulrush (Schoenoplectus juncoides); details: 320 g/ha applied herbicide
Procedure, shortened: (§4)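 Submerged Wagner pots (alluvial soil, 4 cm water) sown with weed seeds and planted with 2.5-leaf rice seedlings; emulsifiable concentrate diluted in water applied to water surface on sowing day. Held in greenhouse at 25-30 °C; injury scored 0-5 by herbicidal rate after three weeks.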

[12] = tested on: green foxtail; assay: Test Example 4: herbicidal effect by soil treatment (Table 19, symbol G); type: in vivo, green foxtail (Setaria viridis); details: amount of applied herbicide 320 g/ha
Procedure, shortened: as §2

[13] = tested on: oval-leafed pondweed; assay: Test Example 1: herbicidal activity, application before weed generation under submerged conditions (Table 16, symbol C); type: in vivo, oval-leafed pondweed (Monochoria vaginalis); details: 320 g/ha applied herbicide
Procedure, shortened: as §4

[14] = tested on: windgrass; assay: Test Example 4: herbicidal effect by soil treatment (Table 19, symbol L); type: in vivo, windgrass (Apera spica-venti); details: amount of applied herbicide 320 g/ha
Procedure, shortened: as §2

[15] = tested on: green foxtail; assay: Test Example 5: herbicidal effect by foliage application, plastic box (Table 20, symbol G); type: in vivo, green foxtail (Setaria viridis); details: foliage application, 320 g/ha, evaluated three weeks after application
Procedure, shortened: as §1

[16] = tested on: persian speedwell; assay: Test Example 4: herbicidal effect by soil treatment (Table 19, symbol R); type: in vivo, Persian speedwell (Veronica persica); details: amount of applied herbicide 320 g/ha
Procedure, shortened: as §2

| Compound | herbicidal effect on O: lambsquarters (criteria 0-5) [1] | herbicidal effect on F: southern crabgrass (criteria 0-5) [2] | I: wild oat, herbicidal effect rating [3] | M: velvetleaf, herbicidal effect rating [4] | herbicidal effect on P: chickweed (criteria 0-5) [5] | herbicidal effect rating, C: oval-leafed pondweed [6] | K: Italian ryegrass, herbicidal effect rating [7] | herbicidal effect on E: rice flat sedge [8] | herbicidal effect rating, B: Japanese bulrush [9] | herbicidal effect on L: windgrass (criteria 0-5) [10] | Herbicidal effect on B: Japanese bulrush (grade 0-5) [11] | G: green foxtail, herbicidal effect rating [12] | Herbicidal effect on C: oval-leafed pondweed (grade 0-5) [13] | L: windgrass, herbicidal effect rating [14] | herbicidal effect on G: green foxtail (criteria 0-5) [15] | R: persian speedwell, herbicidal effect rating [16] |
| --- | --- | --- | --- | --- | --- | --- | --- | --- | --- | --- | --- | --- | --- | --- | --- | --- |
| Cc1nn(C)c(=O)c(-c2c(-c3ccccc3F)sc3ccc(F)cc23)c1O [2-199] | 5 (Herbicidal rate of 90% or more (almost completely withered)) | 4 (Herbicidal rate of 70% or more and less than 90%) | 0 (Herbicidal rate of 5% or less (almost no effect)) | 1 (Herbicidal rate of 5% or more and less than 20%) | 5 (Herbicidal rate of 90% or more (almost completely withered)) | 0 (Herbicidal rate of 5% or less (almost no effect)) | 3 (Herbicidal rate of 40% or more and less than 70%) | 5 (Herbicidal rate of 90% or more (almost completely withered)) | 2 (Herbicidal rate of 20% or more and less than 40%) | 0 (Herbicidal rate of 5% or less (almost no effect)) | 3 (Herbicidal rate of 40% or more and less than 70%) | 4 (Herbicidal rate of 70% or more and less than 90%) | 2 (Herbicidal rate of 20% or more and less than 40%) | 0 (Herbicidal rate of 5% or less (almost no effect)) | 5 (Herbicidal rate of 90% or more (almost completely withered)) | 0 (Herbicidal rate of 5% or less (almost no effect)) |
| Cc1nn(C)c(=O)c(-c2c(-c3ccc(Br)cc3)sc3ccc(F)cc23)c1O [2-205] | 5 (Herbicidal rate of 90% or more (almost completely withered)) | 5 (Herbicidal rate of 90% or more (almost completely withered)) | 1 (Herbicidal rate of 5% or more and less than 20%) | 2 (Herbicidal rate of 20% or more and less than 40%) | 5 (Herbicidal rate of 90% or more (almost completely withered)) | 2 (Herbicidal rate of 20% or more and less than 40%) | 5 (Herbicidal rate of 90% or more (almost completely withered)) | 5 (Herbicidal rate of 90% or more (almost completely withered)) | 3 (Herbicidal rate of 40% or more and less than 70%) | 5 (Herbicidal rate of 90% or more (almost completely withered)) | 3 (Herbicidal rate of 40% or more and less than 70%) | 5 (Herbicidal rate of 90% or more (almost completely withered)) | 1 (Herbicidal rate of 5% or more and less than 20%) | 0 (Herbicidal rate of 5% or less (almost no effect)) | 5 (Herbicidal rate of 90% or more (almost completely withered)) | 5 (Herbicidal rate of 90% or more (almost completely withered)) |
| CCCC(=O)Oc1c(C)nn(C)c(=O)c1-c1c(-c2ccc(Br)cc2)sc2ccc(F)cc12 [2-206] | 5 (Herbicidal rate of 90% or more (almost completely withered)) | 3 (Herbicidal rate of 40% or more and less than 70%) | 0 (Herbicidal rate of 5% or less (almost no effect)) | 2 (Herbicidal rate of 20% or more and less than 40%) | 5 (Herbicidal rate of 90% or more (almost completely withered)) | 4 (Herbicidal rate of 70% or more and less than 90%) | 5 (Herbicidal rate of 90% or more (almost completely withered)) | 5 (Herbicidal rate of 90% or more (almost completely withered)) | 3 (Herbicidal rate of 40% or more and less than 70%) | 4 (Herbicidal rate of 70% or more and less than 90%) | 5 (Herbicidal rate of 90% or more (almost completely withered)) | 3 (Herbicidal rate of 40% or more and less than 70%) | 4 (Herbicidal rate of 70% or more and less than 90%) | 2 (Herbicidal rate of 20% or more and less than 40%) | 3 (Herbicidal rate of 40% or more and less than 70%) | 5 (Herbicidal rate of 90% or more (almost completely withered)) |
| CCc1ccc(-c2sc3ccc(F)cc3c2-c2c(O)c(C)nn(C)c2=O)cc1 [2-207] | 5 (Herbicidal rate of 90% or more (almost completely withered)) | 4 (Herbicidal rate of 70% or more and less than 90%) | 0 (Herbicidal rate of 5% or less (almost no effect)) | 5 (Herbicidal rate of 90% or more (almost completely withered)) | 5 (Herbicidal rate of 90% or more (almost completely withered)) | 1 (Herbicidal rate of 5% or more and less than 20%) | 4 (Herbicidal rate of 70% or more and less than 90%) | 5 (Herbicidal rate of 90% or more (almost completely withered)) | 3 (Herbicidal rate of 40% or more and less than 70%) | 4 (Herbicidal rate of 70% or more and less than 90%) | 4 (Herbicidal rate of 70% or more and less than 90%) | 0 (Herbicidal rate of 5% or less (almost no effect)) | 3 (Herbicidal rate of 40% or more and less than 70%) | 3 (Herbicidal rate of 40% or more and less than 70%) | 4 (Herbicidal rate of 70% or more and less than 90%) | 5 (Herbicidal rate of 90% or more (almost completely withered)) |
| Cc1nn(C)c(=O)c(-c2c(-c3cccc(OCC(C)C)c3)sc3ccc(F)cc23)c1O [2-221] | 5 (Herbicidal rate of 90% or more (almost completely withered)) | 5 (Herbicidal rate of 90% or more (almost completely withered)) | 0 (Herbicidal rate of 5% or less (almost no effect)) | 4 (Herbicidal rate of 70% or more and less than 90%) | 5 (Herbicidal rate of 90% or more (almost completely withered)) | 3 (Herbicidal rate of 40% or more and less than 70%) | 4 (Herbicidal rate of 70% or more and less than 90%) | 5 (Herbicidal rate of 90% or more (almost completely withered)) | 3 (Herbicidal rate of 40% or more and less than 70%) | 5 (Herbicidal rate of 90% or more (almost completely withered)) | 5 (Herbicidal rate of 90% or more (almost completely withered)) | 5 (Herbicidal rate of 90% or more (almost completely withered)) | 5 (Herbicidal rate of 90% or more (almost completely withered)) | 3 (Herbicidal rate of 40% or more and less than 70%) | 5 (Herbicidal rate of 90% or more (almost completely withered)) | 5 (Herbicidal rate of 90% or more (almost completely withered)) |
